# Data taken from paper PMC6478789, “A chemical toolbox for the study of bromodomains and epigenetic signaling” (Nature Communications, 2019).
# Columns and labels:
# Assay in all cases: Temperature shift assay (protein kinases)
# Assay type in all cases: binding
# Conditions in all cases: 10 μM probe; average of three measurements
# CAMKK2 = target: T1, CAMKK2 (Homo sapiens, UniProt Q96RR4)
# T1 construct: Recombinant protein domains (bromodomain or kinases) at a concentration of 2 μM
# Method: (§1) Temperature shift assays have been described by Fedorov et al.[46]. Recombinant protein domains (bromodomain or kinases) at a concentration of 2 μM in 10 mM HEPES, pH 7.5, and 500 mM NaCl were mixed with 10 μM of chemical probes. Temperature-dependent protein unfolding profiles were measured using a Real-Time PCR Mx3005p machine (Stratagene).
# PHGK2 = target: T2, PHGK2 (Homo sapiens, UniProt P15735)
# T2 construct: Recombinant protein domains (bromodomain or kinases) at a concentration of 2 μM
# T2 sequence (P15735 24-291 limits assumed): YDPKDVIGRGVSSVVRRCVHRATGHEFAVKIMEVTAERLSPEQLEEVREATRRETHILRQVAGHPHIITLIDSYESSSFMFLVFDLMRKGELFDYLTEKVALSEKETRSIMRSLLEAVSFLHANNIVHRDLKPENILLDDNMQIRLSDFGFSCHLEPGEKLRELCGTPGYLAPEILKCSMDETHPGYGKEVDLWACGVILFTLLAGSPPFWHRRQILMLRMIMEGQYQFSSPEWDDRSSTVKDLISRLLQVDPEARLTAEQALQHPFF
# Method: as §1
# GSG2 = target: T3, GSG2 (Homo sapiens, UniProt Q8TF76)
# T3 construct: Recombinant protein domains (bromodomain or kinases) at a concentration of 2 μM
# T3 sequence (Q8TF76 484-798 limits assumed): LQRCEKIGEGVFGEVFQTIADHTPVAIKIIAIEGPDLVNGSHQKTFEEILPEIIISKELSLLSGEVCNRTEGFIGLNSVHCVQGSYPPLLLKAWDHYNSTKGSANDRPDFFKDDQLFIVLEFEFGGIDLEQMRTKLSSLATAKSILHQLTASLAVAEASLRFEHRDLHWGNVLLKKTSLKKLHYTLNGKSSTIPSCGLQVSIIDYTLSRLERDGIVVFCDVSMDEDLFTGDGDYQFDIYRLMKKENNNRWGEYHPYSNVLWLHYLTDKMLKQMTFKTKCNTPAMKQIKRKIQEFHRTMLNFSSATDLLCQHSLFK
# Method: as §1
# ABL1 = target: T4, ABL1 (Homo sapiens, UniProt P00519)
# T4 construct: Recombinant protein domains (bromodomain or kinases) at a concentration of 2 μM
# T4 sequence (P00519 242-493 limits assumed): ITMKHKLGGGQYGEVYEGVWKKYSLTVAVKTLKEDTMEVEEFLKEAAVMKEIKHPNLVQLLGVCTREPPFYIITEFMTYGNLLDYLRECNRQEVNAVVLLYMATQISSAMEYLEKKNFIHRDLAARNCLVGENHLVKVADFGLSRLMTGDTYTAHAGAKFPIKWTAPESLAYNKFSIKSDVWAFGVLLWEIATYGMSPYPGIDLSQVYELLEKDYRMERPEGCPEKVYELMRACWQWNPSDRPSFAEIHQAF
# Method: as §1
# CAMK1G = target: T5, CAMK1G (Homo sapiens, UniProt Q96NX5)
# T5 construct: Recombinant protein domains (bromodomain or kinases) at a concentration of 2 μM
# Method: as §1
# STK3 = target: T6, STK3 (Homo sapiens, UniProt Q13188)
# T6 construct: Recombinant protein domains (bromodomain or kinases) at a concentration of 2 μM
# T6 sequence (Q13188 27-278 limits assumed): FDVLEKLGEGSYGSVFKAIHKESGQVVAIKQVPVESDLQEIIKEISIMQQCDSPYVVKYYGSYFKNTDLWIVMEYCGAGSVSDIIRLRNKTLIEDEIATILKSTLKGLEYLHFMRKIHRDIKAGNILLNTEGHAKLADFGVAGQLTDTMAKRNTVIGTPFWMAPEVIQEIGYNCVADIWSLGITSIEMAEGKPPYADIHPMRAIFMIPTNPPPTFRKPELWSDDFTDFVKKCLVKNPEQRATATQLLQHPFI
# Method: as §1
# MAPK8 = target: T7, MAPK8 (Homo sapiens, UniProt P45983)
# T7 construct: Recombinant protein domains (bromodomain or kinases) at a concentration of 2 μM
# Method: as §1
# EPHA2 = target: T8, EPHA2 (Homo sapiens, UniProt P29317)
# T8 construct: Recombinant protein domains (bromodomain or kinases) at a concentration of 2 μM
# T8 sequence (P29317 613-875 limits assumed): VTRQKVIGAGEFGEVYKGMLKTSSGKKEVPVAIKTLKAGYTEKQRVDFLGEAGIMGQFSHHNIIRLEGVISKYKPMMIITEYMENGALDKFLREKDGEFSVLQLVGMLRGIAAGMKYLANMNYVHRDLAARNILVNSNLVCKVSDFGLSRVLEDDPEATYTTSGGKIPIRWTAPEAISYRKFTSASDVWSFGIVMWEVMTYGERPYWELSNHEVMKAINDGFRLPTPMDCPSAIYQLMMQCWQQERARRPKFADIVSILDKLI
# Method: as §1
# TTK = target: T9, TTK (Homo sapiens, UniProt P33981)
# T9 construct: Recombinant protein domains (bromodomain or kinases) at a concentration of 2 μM
# T9 sequence (P33981 525-791 limits assumed): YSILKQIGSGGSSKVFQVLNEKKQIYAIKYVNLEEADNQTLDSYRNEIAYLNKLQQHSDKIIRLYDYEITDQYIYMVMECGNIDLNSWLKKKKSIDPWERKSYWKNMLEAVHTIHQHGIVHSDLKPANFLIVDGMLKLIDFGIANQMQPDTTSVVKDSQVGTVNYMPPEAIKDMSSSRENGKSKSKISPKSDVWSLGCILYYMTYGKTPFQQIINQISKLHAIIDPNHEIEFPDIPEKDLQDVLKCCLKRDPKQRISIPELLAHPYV
# Method: as §1
# RPS6KA1 = system: RPS6KA1
# Method: as §1
# AAK1 = target: T10, AAK1 (Homo sapiens, UniProt Q2M2I8)
# T10 construct: Recombinant protein domains (bromodomain or kinases) at a concentration of 2 μM
# Method: as §1
# STK10 = target: T11, STK10 (Homo sapiens, UniProt O94804)
# T11 construct: Recombinant protein domains (bromodomain or kinases) at a concentration of 2 μM
# Method: as §1
# MAPK1 = target: T12, MAPK1 (Homo sapiens, UniProt P28482)
# T12 construct: Recombinant protein domains (bromodomain or kinases) at a concentration of 2 μM
# Method: as §1
# CK2A1 = target: T13, CK2A1 (Homo sapiens, UniProt P68400)
# T13 construct: Recombinant protein domains (bromodomain or kinases) at a concentration of 2 μM
# T13 sequence (P68400 39-324 limits assumed): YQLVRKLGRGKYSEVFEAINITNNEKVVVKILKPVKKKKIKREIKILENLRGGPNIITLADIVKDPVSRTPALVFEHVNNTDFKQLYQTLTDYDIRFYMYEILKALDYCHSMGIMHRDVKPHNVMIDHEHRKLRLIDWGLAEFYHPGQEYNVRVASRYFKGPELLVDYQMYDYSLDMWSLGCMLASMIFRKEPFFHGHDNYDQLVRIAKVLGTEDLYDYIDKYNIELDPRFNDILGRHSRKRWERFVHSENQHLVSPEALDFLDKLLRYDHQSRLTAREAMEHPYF
# Method: as §1
# PAK4 = target: T14, PAK4 (Homo sapiens, UniProt O96013)
# T14 construct: Recombinant protein domains (bromodomain or kinases) at a concentration of 2 μM
# Method: as §1
# T1 sequence (Q96RR4 165-446 limits assumed, species assumed): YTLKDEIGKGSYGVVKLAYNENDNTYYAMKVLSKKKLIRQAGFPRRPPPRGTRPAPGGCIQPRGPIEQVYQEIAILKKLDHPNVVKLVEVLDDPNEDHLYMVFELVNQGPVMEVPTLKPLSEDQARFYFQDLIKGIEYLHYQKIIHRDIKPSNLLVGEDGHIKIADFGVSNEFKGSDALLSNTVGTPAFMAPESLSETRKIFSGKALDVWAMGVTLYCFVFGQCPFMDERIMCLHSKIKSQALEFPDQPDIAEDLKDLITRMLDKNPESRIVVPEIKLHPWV
# T5 sequence (Q96NX5 23-277 limits assumed, species assumed): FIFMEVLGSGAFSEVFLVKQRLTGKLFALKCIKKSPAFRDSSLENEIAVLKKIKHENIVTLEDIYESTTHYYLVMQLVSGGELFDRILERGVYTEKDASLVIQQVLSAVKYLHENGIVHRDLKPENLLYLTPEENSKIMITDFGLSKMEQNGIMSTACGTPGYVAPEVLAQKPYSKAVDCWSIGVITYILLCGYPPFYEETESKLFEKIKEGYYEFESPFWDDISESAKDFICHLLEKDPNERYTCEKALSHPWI
# T12 sequence (P28482 25-313 limits assumed, species assumed): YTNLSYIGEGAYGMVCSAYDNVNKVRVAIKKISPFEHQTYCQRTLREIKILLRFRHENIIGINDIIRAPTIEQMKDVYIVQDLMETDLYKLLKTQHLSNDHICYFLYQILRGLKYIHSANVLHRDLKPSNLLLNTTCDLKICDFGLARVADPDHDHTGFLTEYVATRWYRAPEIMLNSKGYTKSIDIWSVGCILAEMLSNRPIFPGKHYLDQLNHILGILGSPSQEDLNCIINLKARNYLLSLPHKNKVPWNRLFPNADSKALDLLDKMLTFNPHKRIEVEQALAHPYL
# T10 sequence (Q2M2I8 46-315 limits assumed, species assumed): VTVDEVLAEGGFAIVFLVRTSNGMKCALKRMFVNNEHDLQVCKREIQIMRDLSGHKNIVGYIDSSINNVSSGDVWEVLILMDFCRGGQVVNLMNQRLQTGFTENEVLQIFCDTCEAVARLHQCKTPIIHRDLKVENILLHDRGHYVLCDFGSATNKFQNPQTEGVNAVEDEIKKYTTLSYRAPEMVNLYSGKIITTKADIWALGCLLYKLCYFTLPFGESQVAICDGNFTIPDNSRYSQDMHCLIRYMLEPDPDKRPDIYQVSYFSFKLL
# T7 sequence (P45983 26-321 limits assumed, species assumed): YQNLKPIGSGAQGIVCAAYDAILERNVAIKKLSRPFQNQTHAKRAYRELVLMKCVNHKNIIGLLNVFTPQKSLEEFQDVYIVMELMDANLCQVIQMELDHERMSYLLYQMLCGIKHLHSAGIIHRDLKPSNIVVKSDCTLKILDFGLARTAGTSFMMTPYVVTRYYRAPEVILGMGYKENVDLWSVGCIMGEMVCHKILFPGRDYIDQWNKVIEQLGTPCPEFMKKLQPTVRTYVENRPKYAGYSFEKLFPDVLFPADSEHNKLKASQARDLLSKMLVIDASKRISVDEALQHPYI
# T14 sequence (O96013 321-572 limits assumed, species assumed): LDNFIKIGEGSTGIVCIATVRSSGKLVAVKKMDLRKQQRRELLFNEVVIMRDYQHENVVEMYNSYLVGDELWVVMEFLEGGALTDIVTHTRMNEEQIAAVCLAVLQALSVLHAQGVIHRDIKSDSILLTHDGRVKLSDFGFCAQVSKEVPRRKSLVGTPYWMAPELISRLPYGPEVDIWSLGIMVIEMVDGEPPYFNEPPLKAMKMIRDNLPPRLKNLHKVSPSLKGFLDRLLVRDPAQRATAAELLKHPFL
# T11 sequence (O94804 36-294 limits assumed, species assumed): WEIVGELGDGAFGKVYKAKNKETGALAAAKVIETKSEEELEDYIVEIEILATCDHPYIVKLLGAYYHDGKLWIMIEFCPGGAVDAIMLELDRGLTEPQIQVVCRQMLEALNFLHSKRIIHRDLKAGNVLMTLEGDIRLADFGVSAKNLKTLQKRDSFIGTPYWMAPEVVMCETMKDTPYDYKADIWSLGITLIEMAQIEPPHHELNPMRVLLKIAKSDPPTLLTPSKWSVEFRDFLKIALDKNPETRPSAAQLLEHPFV
Temperature shift (CAMKK2) [Kelvin],Temperature shift (PHGK2) [Kelvin],Temperature shift (GSG2) [Kelvin],Temperature shift (ABL1) [Kelvin],Temperature shift (CAMK1G) [Kelvin],Temperature shift (STK3) [Kelvin],Temperature shift (MAPK8) [Kelvin],Temperature shift (EPHA2) [Kelvin],Temperature shift (TTK) [Kelvin],Temperature shift (AAK1) [Kelvin],Temperature shift (STK10) [Kelvin],Temperature shift (MAPK1) [Kelvin],Temperature shift (CK2A1) [Kelvin],Temperature shift (PAK4) [Kelvin],SMILES,Temperature shift (RPS6KA1) [Kelvin]
-0.4,0.0,0.1,0.0,-0.6,0.1,-0.4,2.0,-0.1,-0.4,-0.2,0.0,-1.4,-0.1,Cc1cc2c(cc1N1C(=O)c3cccc4c(CCCO)ccc(c34)C1=O)n(C)c(=O)n2C [BAY-299],0.1
-0.4,0.1,0.1,0.0,-0.2,0.0,0.3,1.1,0.0,-0.7,-0.4,0.2,-1.9,-0.2,CCC(=O)N1CCOc2c(cc(-c3ccc(OC)c(OC)c3)cc2OCC2CCCN(C)C2)C1 (stereo not drawn) [I-CBP112],0.1
-0.1,-0.1,0.1,0.0,-0.3,0.0,0.6,1.1,-0.5,-1.6,-0.4,0.1,-0.1,-0.3,Cc1nnc2c3ccccc3c(N[C@@H](C)[C@H](c3ccccc3)N(C)C)nn12 [L-Moses],0.2
